Measurements taken from patent US10717733B2, “Haloallylamine indole and azaindole derivative inhibitors of lysyl oxidases and uses thereof” (PHARMAXIS LTD., priority 2016, dated 2020).
Structures can show the parent of a compound that is named as a salt.

Columns and labels:
Format in all cases: biochemical
Bovine LOX = Bovine LOX (Bos taurus (Bovine), UniProt P33072); assay: LOX inhibition, peroxidase-coupled Amplex Red amine oxidase assay; settings: 30 min preincubation at 37° C., putrescine substrate
Text: (§1) Method to Determine the Ability of Compounds of the Invention to Inhibit LOX and LOXL1-4 from Different Sources
Lysyl oxidase (LOX) is an extracellular copper dependent enzyme which oxidizes peptidyl lysine and hydroxylysine residues in collagen and lysine residues in elastin to produce peptidyl alpha-aminoadipic-delta-semialdehydes. […] There are five LOX family members; these are LOX, LOXL1, LOXL2, LOXL3 and LOXL4. LOX and LOXL family members can be acquired as recombinant active proteins from commercial sources, or extracted from animal tissues like bovine aorta, tendons, pig skin; or prepared from cell cultures. The inhibitory effects of the compounds of the present invention were tested against the given LOX-LOXL preparation using a high-throughput coupled colorimetric method (Holt A. and Palcic M., A peroxidase-coupled continuous absorbance plate-reader assay for flavin monoamine oxidases, copper-containing amine oxidases and related enzymes. Nat. Protoc. 2006; 1: 2498-2505). The assay was developed using either 384 or 96 well format. Briefly, in a standard 384 well plate assay 25 μL of a dilution of any of the isoenzymes and orthologues in 1.2 M urea, 50 mM sodium borate buffer (pH 8.2) were added into each well in the presence of 1 μM mofegiline and 0.5 mM pargyline (to inhibit SSAO and MAO-B and MAO-A, respectively). […] of a reaction mixture containing twice the KM concentration of putrescine (Sigma Aldrich, e.g. 20 mM for LOX, or 10 mM for LOXL2 and LOXL3), 120 μM Amplex Red (Sigma Aldrich) and 1.5 U/mL horseradish peroxidase (Sigma Aldrich) prepared in 1.2 M urea, 50 mM sodium borate buffer (pH 8.2) were then added to the corresponding wells. The above volumes were doubled in the case of 96 wells plate. The fluorescence (RFU) was read every 2.5 min for 30 min at a range of temperatures from 37° to 45° C., excitation 565 nm and emission 590 (Optima; BMG labtech). The slope of the kinetics for each well was calculated using MARS data analysis software (BMG labtech) and this value was used to deduce the IC50 value (Dotmatics).

[1] = molecular target: human recombinant SSAO/VAP-1 (Homo sapiens (Human), UniProt Q16853); assay: Inhibition of human recombinant SSAO/VAP-1 amine oxidase activity; settings: 30 min preincubation at 37° C., 600 μM benzylamine
Method: Method to Determine the Ability of Compounds of Formula I to Inhibit Human Recombinant SSAO/VAP-1
Human recombinant SSAO/VAP-1 amine oxidase activity was determined using the coupled colorimetric method as described for monoamine oxidase, copper-containing amine oxidases and related enzymes (Holt A. and Palcic M., A peroxidase-coupled continuous absorbance plate-reader assay for flavin monoamine oxidases, copper-containing amine oxidases and related enzymes. Nat Protoc 2006; 1: 2498-2505). Briefly, a cloned cDNA template corresponding to residues 34-763 of human SSAO/VAP-1, and incorporating a mouse Ig kappa (κ) signal sequence, N-terminal flag epitope tag and tobacco etch virus (TEV) cleavage site, was assembled in a mammalian expression vector (pLO-CMV) by Geneart AG. This vector containing human SSAO/VAP-1 residues was transfected into CHO-K1 glycosylation mutant cell line, Lec 8. A clone stably expressing human SSAO/VAP-1 was isolated and cultured in large scale. Active human SSAO/VAP-1 was purified and recovered using immunoaffinity chromatography. This was used as the source for SSAO/VAP-1 activity. A high-throughput colorimetric assay was developed using either 96 or 384 well format. Briefly, in a standard 96 well plate assay 50 μL of purified human SSAO/VAP-1 (0.25 μg/mL) in 0.1 M sodium phosphate buffer (pH 7.4) was added into each well. Test compounds were dissolved in DMSO and tested in a Concentration Response Curve (CRC) with 4-11 data points, typically in the micromolar or nanomolar range after incubation with human SSAO/VAP-1 for 30 min at 37° C. After 30 min incubation, 50 μL of the reaction mixture containing 600 μM benzylamine (Sigma Aldrich), 120 μM Amplex Red (Sigma Aldrich) and 1.5 U/mL horseradish peroxidase (Sigma Aldrich) prepared in 0.1 M sodium phosphate buffer (pH 7.4) were added to the corresponding well. The fluorescence unit (RFU) was read every 2.5 min for 30 min at 37° C. excitation 565 nm and emission 590 (Optima; BMG labtech). The slope of the kinetics for each well was calculated using MARS data analysis software (BMG labtech) and this value was used to deduce the IC50 value (Dotmatics).

Human LOXL2 = Human LOXL2 (Homo sapiens (Human), UniProt Q9Y4K0); assay: LOXL2 inhibition, peroxidase-coupled Amplex Red amine oxidase assay; settings: 30 min preincubation at 37° C., putrescine substrate
Text: as §1
Lysyl oxidase (LOX) is an extracellular copper dependent enzyme which oxidizes peptidyl lysine and hydroxylysine residues in collagen and lysine residues in elastin to produce peptidyl alpha-aminoadipic-delta-semialdehydes. […] There are five LOX family members; these are LOX, LOXL1, LOXL2, LOXL3 and LOXL4. LOX and LOXL family members can be acquired as recombinant active proteins from commercial sources, or extracted from animal tissues like bovine aorta, tendons, pig skin; or prepared from cell cultures. The inhibitory effects of the compounds of the present invention were tested against the given LOX-LOXL preparation using a high-throughput coupled colorimetric method (Holt A. and Palcic M., A peroxidase-coupled continuous absorbance plate-reader assay for flavin monoamine oxidases, copper-containing amine oxidases and related enzymes. Nat. Protoc. 2006; 1: 2498-2505). The assay was developed using either 384 or 96 well format. Briefly, in a standard 384 well plate assay 25 μL of a dilution of any of the isoenzymes and orthologues in 1.2 M urea, 50 mM sodium borate buffer (pH 8.2) were added into each well in the presence of 1 μM mofegiline and 0.5 mM pargyline (to inhibit SSAO and MAO-B and MAO-A, respectively). Test compounds were dissolved in DMSO and tested in a Concentration Response Curve (CRC) with 11 data points, typically in the micromolar or nanomolar range after incubation with the enzyme for 30 min at 37° C. Twenty five L of a reaction mixture containing twice the KM concentration of putrescine (Sigma Aldrich, e.g. 20 mM for LOX, or 10 mM for LOXL2 and LOXL3), 120 μM Amplex Red (Sigma Aldrich) and 1.5 U/mL horseradish peroxidase (Sigma Aldrich) prepared in 1.2 M urea, 50 mM sodium borate buffer (pH 8.2) were then added to the corresponding wells. The above volumes were doubled in the case of 96 wells plate. The fluorescence (RFU) was read every 2.5 min for 30 min at a range of temperatures from 37° to 45° C., excitation 565 nm and emission 590 (Optima; BMG labtech). The slope of the kinetics for each well was calculated using MARS data analysis software (BMG labtech) and this value was used to deduce the IC50 value (Dotmatics).

Recombinant human MAO-B = Recombinant human MAO-B (Homo sapiens (Human), UniProt P27338); assay: Inhibition of human recombinant MAO-B; settings: benzylamine 100 μM
Method: Method to Determine the Ability of Compounds of Formula I to Inhibit Human Recombinant MAO-B
The specificity of the compounds of this invention was tested by determining their ability to inhibit MAO-B activities in vitro. Recombinant human MAO-B (0.06 mg/mL; Sigma Aldrich) was used as source of MAO-B enzyme activities. The assay was performed in a similar way as for human SSAO/VAP-1 (Example 66) except, the substrate benzylamine was used at 100 μM.

Sequence of human recombinant SSAO/VAP-1 (Q16853 34-763): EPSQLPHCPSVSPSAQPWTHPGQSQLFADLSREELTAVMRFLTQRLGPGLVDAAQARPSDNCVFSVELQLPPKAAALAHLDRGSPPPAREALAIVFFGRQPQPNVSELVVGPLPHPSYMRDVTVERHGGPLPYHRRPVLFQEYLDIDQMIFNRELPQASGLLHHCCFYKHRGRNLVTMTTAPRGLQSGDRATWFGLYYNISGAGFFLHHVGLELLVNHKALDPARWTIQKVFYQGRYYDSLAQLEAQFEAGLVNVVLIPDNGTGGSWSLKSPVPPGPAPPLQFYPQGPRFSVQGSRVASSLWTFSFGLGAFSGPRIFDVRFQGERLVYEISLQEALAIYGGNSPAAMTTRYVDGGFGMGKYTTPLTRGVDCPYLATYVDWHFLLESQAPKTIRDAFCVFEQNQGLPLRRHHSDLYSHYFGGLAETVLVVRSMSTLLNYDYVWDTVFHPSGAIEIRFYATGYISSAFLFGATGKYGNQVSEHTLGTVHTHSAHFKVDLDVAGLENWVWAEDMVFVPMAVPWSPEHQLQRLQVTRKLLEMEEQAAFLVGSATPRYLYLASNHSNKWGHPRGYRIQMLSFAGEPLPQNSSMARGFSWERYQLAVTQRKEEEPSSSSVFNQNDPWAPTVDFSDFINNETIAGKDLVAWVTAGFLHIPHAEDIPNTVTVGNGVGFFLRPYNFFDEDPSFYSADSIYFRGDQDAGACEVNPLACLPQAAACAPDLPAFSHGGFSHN
Sequence of Human LOXL2 (Q9Y4K0 26-774): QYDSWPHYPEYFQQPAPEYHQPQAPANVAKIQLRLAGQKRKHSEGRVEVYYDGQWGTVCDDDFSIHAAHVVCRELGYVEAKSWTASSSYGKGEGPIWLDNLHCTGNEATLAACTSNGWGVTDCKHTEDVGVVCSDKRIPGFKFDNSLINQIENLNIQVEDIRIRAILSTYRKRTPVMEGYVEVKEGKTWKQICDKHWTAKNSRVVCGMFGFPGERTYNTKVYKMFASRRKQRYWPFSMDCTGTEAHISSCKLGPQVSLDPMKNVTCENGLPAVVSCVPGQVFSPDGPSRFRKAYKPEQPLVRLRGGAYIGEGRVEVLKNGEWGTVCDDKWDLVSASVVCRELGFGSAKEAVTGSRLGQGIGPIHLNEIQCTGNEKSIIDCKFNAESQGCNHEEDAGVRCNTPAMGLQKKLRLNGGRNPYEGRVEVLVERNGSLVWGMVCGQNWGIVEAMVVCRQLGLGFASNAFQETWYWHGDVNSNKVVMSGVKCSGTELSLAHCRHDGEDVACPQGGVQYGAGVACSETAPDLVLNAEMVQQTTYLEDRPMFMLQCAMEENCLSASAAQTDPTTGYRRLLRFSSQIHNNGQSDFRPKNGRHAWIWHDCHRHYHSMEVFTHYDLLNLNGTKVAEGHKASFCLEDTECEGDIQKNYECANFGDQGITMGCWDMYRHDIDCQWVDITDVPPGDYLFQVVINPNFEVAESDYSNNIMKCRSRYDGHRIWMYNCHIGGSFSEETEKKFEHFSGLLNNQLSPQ
Sequence of Bovine LOX (P33072 170-418): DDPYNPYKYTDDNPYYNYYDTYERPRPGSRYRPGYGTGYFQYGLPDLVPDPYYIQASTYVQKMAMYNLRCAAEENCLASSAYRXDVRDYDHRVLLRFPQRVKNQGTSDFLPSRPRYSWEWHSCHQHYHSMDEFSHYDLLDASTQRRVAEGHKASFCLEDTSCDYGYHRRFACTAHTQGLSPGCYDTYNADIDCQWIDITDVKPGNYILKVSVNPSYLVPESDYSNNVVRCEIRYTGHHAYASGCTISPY
Sequence of Recombinant human MAO-B (P27338 whole entry): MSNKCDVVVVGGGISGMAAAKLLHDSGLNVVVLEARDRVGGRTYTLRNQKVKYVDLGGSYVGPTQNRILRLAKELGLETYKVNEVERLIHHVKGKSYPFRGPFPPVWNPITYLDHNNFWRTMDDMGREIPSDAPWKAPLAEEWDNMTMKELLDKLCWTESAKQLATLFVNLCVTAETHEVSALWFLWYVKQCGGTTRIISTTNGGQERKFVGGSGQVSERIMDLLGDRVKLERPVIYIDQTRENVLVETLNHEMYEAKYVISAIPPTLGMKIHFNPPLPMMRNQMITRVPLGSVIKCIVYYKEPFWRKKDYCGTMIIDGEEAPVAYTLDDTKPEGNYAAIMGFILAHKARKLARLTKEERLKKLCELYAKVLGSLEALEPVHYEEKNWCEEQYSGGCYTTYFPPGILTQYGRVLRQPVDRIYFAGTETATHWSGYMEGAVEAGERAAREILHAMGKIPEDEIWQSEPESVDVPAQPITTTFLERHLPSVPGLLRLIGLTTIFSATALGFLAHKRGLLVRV

Structure (SMILES) | IC50 (Bovine LOX) | IC50 [1] | IC50 (Human LOXL2) | IC50 (Recombinant human MAO-B)
Cc1cc(-c2c(C)n(C/C(F)=C/CN)c3ccc(NS(C)(=O)=O)cc23)cc(C)n1 [Compound 102, (Z)—N-(1-(4-amino-2-fluorobut-2-en-1-yl)-3-(2,6-dimethylpyridin-4-yl)-2-methyl-1H-indol-5-yl)methanesulfonamide Dihydrochloride] | > 300 nM | > 3000 nM | < 300 nM | > 3000 nM
Cc1c(-c2cccc(S(=O)(=O)N(C)C)c2)c2cccnc2n1C/C(F)=C/CN [Compound 4, (Z)-3-(1-(4-amino-2-fluorobut-2-en-1-yl)-2-methyl-1H-pyrrolo[2,3-b]pyridin-3-yl)-N,N-dimethylbenzenesulfonamide] | > 300 nM | > 3000 nM | < 300 nM | > 3000 nM
CCOC(=O)c1ccc2c(c1)c(-c1cccc(C(C)(C)C)c1)c(C)n2C/C(F)=C/CN [Compound 30, ethyl (Z)-1-(4-amino-2-fluorobut-2-en-1-yl)-3-(3-(tert-butyl)phenyl)-2-methyl-1H-indole-5-carboxylate] | > 300 nM | > 3000 nM | < 300 nM | > 3000 nM
Cc1c(-c2cncc(S(=O)(=O)N(C)C)c2)c2cc(F)ccc2n1C/C(F)=C/CN [Compound 71, (Z)-5-(1-(4-amino-2-fluorobut-2-en-1-yl)-5-fluoro-2-methyl-1H-indol-3-yl)-N,N-dimethylpyridine-3-sulfonamide] | > 300 nM | > 3000 nM | < 300 nM | > 3000 nM
Cc1c(-c2cccc(S(=O)(=O)N(C)C)c2)c2ccncc2n1C/C(F)=C/CN [Compound 32, (Z)-3-(1-(4-amino-2-fluorobut-2-en-1-yl)-2-methyl-1H-pyrrolo[2,3-c]pyridin-3-yl)-N,N-dimethylbenzenesulfonamide Dihydrochloride] | > 300 nM | > 3000 nM | < 300 nM | > 3000 nM
Cc1c(-c2ccc(F)cc2)c2cc(S(C)(=O)=O)ccc2n1C/C(F)=C/CN [Compound 93, (Z)-3-fluoro-4-(3-(4-fluorophenyl)-2-methyl-5-(methylsulfonyl)-1H-indol-1-yl)but-2-en-1-amine] | > 300 nM | > 3000 nM | < 300 nM | > 3000 nM
COc1ccc2c(n1)c(-c1cccc(S(C)(=O)=O)c1)c(C)n2C/C(F)=C/CN [Compound 69, (Z)-3-fluoro-4-(5-methoxy-2-methyl-3-(3-(methylsulfonyl)phenyl)-1H-pyrrolo[3,2-b]pyridin-1-yl)but-2-en-1-amine Dihydrochloride] | > 300 nM | > 3000 nM | < 300 nM | > 3000 nM
Cc1c(-c2cncc(S(=O)(=O)N(C)C)c2)c2cccc(Cl)c2n1C/C(F)=C/CN [Compound 74, (Z)-5-(1-(4-amino-2-fluorobut-2-en-1-yl)-7-chloro-2-methyl-1H-indol-3-yl)-N,N-dimethylpyridine-3-sulfonamide] | > 300 nM | > 3000 nM | < 300 nM | > 3000 nM
Cc1c(-c2cccc(S(=O)(=O)N(C)C)c2)c2cc(C(=O)NC(C)C)ccc2n1C/C(F)=C/CN [Compound 35, (Z)-1-(4-amino-2-fluorobut-2-en-1-yl)-3-(3-(N,N-dimethylsulfamoyl)phenyl)-N-isopropyl-2-methyl-1H-indole-5-carboxamide] | > 300 nM | > 3000 nM | < 300 nM | > 3000 nM
Cc1c(-c2cccc(N(C)S(C)(=O)=O)c2)c2cc(C(=O)N(C)C)ccc2n1C/C(F)=C/CN [Compound 39, (Z)-1-(4-amino-2-fluorobut-2-en-1-yl)-N,N,2-trimethyl-3-(3-(N-methylmethylsulfonamido)phenyl)-1H-indole-5-carboxamide] | > 300 nM | > 3000 nM | < 300 nM | > 3000 nM
CCOC(=O)c1cc2c(-c3cccc(S(=O)(=O)N(C)C)c3)c(C)n(C/C(F)=C/CN)c2cc1F [Compound 22, (Z)-ethyl 1-(4-amino-2-fluorobut-2-en-1-yl)-3-(3-(N,N-dimethylsulfamoyl)phenyl)-6-fluoro-2-methyl-1H-indole-5-carboxylate] | > 300 nM | > 3000 nM | < 300 nM | > 3000 nM
Cc1c(-c2ccc(S(=O)(=O)N(C)C)cc2)c2ccccc2n1C/C(F)=C/CN [Compound 3, (Z)-4-(1-(4-amino-2-fluorobut-2-en-1-yl)-2-methyl-1H-indol-3-yl)-N,N-dimethylbenzenesulfonamide] | > 300 nM | > 3000 nM | < 300 nM | > 3000 nM
Cc1c(-c2cccc(C(C)(C)C)c2)c2cc(C(=O)O)ccc2n1C/C(F)=C/CN [Compound 31, (Z)-1-(4-amino-2-fluorobut-2-en-l-yl)-3-(3-(tert-butyl)phenyl)-2-methyl-1H-indole-5-carboxylic acid, Hydrochloride] | > 300 nM | > 3000 nM | < 300 nM | > 3000 nM
Cc1c(-c2cncc(S(=O)(=O)N(C)C)c2)c2cc(C(=O)N(C)C)ccc2n1C/C(F)=C/CN [Compound 41, (Z)-1-(4-amino-2-fluorobut-2-en-1-yl)-3-(5-(N,N-dimethylsulfamoyl)pyridin-3-yl)-N,N,2-trimethyl-1H-indole-5-carboxamide] | > 300 nM | > 3000 nM | < 300 nM | > 3000 nM
